Reference: patent publication US11649195B2, “Smart release nitrogen-containing fertilizer granules” (RYNAN TECHNOLOGIES PTE. LTD., priority 2018, dated 2023)

How the values were obtained:
[1] = of associated acids; cited from earlier work
Brassica integrifolia = assay: Growing Brassica integrifolia in planting pots; format: in vivo; settings: day 31 after planting, 10 g fertilizer per pot
Experimental: Fertilizers comprising different functional layers were used for growing Brassica integrifolia. The experiments were done in plastic planting pots containing 5 Kg of a growth media comprising 50% coconut fibers and 50% topsoil. The N, P2O5 and K2O contents in 100 g of the growth media were 7.7 mg, 32 mg and 34 mg, respectively. Ten grams of urea were buried in the growth media at around 3 cm depth as a comparative example (Example 41). Alternatively, 10 grams of various smart N-fertilizers comprising different organic functional layer 104 were buried into the growth media at around 3 cm depth (Examples 42 and following). Then, ten seeds of Brassica integrifolia (also called English spinach) were placed in each planting pot. The planting pots were placed outdoor and wetted with 200 ml water every day.
Smart N-Fertilizers with different organic functional layer comprising tannic acid and its modifiers were used for growing Brassica integrifolia. These experiments were carried out as described above for Examples 42 to 48.
Smart N-Fertilizers with different organic functional layer were used for growing Brassica integrifolia. These experiments were carried out as described above for Examples 42 to 48, with the exception of Example 55 (comparative), in which ten grams of DAP were buried in the growth media at around 3 cm depth as a comparative example.

[2] = Examples 41, 49-54 (tannic acid layers)

O=C(O)Cc1cccc2ccccc12 [1-Naphthalene acetoate, 1-Naphthalene Acetic Acid]
pKa [1]: 4.23

O=C(O)COc1ccc(Cl)cc1 [4-Chlorophenyloxy acetoate, 4-Chlorophenoxyacetic Acid]
pKa [1]: 3.58

N.N.O=P(O)(O)O [DAP, Diammonium phosphate]
Height (Brassica integrifolia; Examples 55-64 (DAP core)): 7.60 cm
Leaf length (Brassica integrifolia; Examples 55-64 (DAP core)): 4.20 cm
Leaf width (Brassica integrifolia; Examples 55-64 (DAP core)): 2.40 cm
Total yield (Brassica integrifolia; Examples 55-64 (DAP core)): 15 gram
Weight of 6 plants (Brassica integrifolia; Examples 55-64 (DAP core)): 9 gram

NC(N)=O [Urea, urea]
Height (Brassica integrifolia; [2]): 4.90 cm
Leaf length (Brassica integrifolia; [2]): 2.00 cm
Leaf width (Brassica integrifolia; [2]): 1.00 cm
Total yield (Brassica integrifolia; [2]): 5 gram
Weight of 6 plants (Brassica integrifolia; [2]): 5 gram
Height (Brassica integrifolia; Examples 41-48): 4.90 cm
Leaf length (Brassica integrifolia; Examples 41-48): 2.00 cm
Leaf width (Brassica integrifolia; Examples 41-48): 1.00 cm
Total yield (Brassica integrifolia; Examples 41-48): 5 gram
Weight of 6 plants (Brassica integrifolia; Examples 41-48): 5 gram
